Values joined by “and” are separate entries in the source; they are usually repeats but may differ in a detail not shown here. Equal entries are not always repeated. Inconclusive results and toxic doses are left out.
Tested on: P388 leukemia ip, CD2F1 mice, survival T/C
Assay: NCI In Vivo Anticancer Drug Screen. Data for tumor model P388 Leukemia (intraperitoneal) in CD2F1 (CDF1) mice
Conditions: endpoint: median survival time, higher = longer survival
How it was run: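 Mice carrying the transplanted tumor received test compound or vehicle. Survival was recorded in each group, and the value is the treated-group measurement divided by that of the vehicle-treated control group.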

[1] = dose: 50.0 mg/kg/injection, schedule: Q01DX005 (ip), vehicle: saline with Tween-80
[2] = dose: 100.0 mg/kg/injection, schedule: Q01DX005 (ip), vehicle: saline with Tween-80
[3] = dose: 200.0 mg/kg/injection, schedule: Q01DX005 (ip), vehicle: saline with Tween-80
[4] = dose: 25.0 mg/kg/injection, schedule: Q01DX005 (ip), vehicle: saline with Tween-80
[5] = dose: 50.0 mg/kg/injection, schedule: Q01DX009 (ip), vehicle: saline with Tween-80
[6] = dose: 100.0 mg/kg/injection, schedule: Q01DX009 (ip), vehicle: saline with Tween-80

Cc1ccc(S(=O)(=O)OI(O)c2ccccc2)cc1 was tested, and the T/C (dose: 50.0 mg/kg/injection, schedule: Q01DX009 (ip), vehicle: water) was 108 % of control and the T/C (dose: 100.0 mg/kg/injection, schedule: Q01DX009 (ip), vehicle: water) was 104 % of control.
In the case of O=C(/C=C/C(=O)Nc1ccc(F)cc1F)Nc1ccc(F)cc1F, the T/C (dose: 60.0 mg/kg/injection, schedule: Q01DX005 (ip), vehicle: saline with Tween-80) is reported as 94 % of control and 95 % of control, the T/C (dose: 120.0 mg/kg/injection, schedule: Q01DX005 (ip), vehicle: saline with Tween-80) is reported as 98 % of control and the T/C (dose: 240.0 mg/kg/injection, schedule: Q01DX005 (ip), vehicle: saline with Tween-80) is reported as 104 % of control and 97 % of control.
With O=C(CC(c1cccnc1)C(C(=O)c1ccc(Cl)cc1)C(CC(=O)c1ccc(Cl)cc1)c1cccnc1)c1ccc(Cl)cc1 (stereo not given) the T/C [1] was 90 % of control, the T/C [2] was 90 % of control and the T/C [3] was 92 % of control.
For CCOC(=O)C(Cc1ccccc1)C1(C)SCCN1C(=O)OCC (stereo not given), the T/C [4] was 101 % of control, the T/C [1] was 105 % of control and the T/C [2] was 100 % of control. For the same compound, the T/C [3] was 103 % of control.
With COc1cc2c(c(OC)c1OC)-c1ccc(SC)c(=O)cc1C(NC(=S)NC1OCC(OC(C)=O)C(OC(C)=O)C1OC(C)=O)CC2 (stereo not given) the T/C (dose: 25.0 mg/kg/injection, schedule: Q01DX009 (ip), vehicle: saline with Tween-80) was 178 % of control and 184 % of control, the T/C [5] was 200 % of control and 191 % of control and the T/C [6] was 93 % of control and 101 % of control.
In the case of N#Cc1c(C(F)(F)F)cc(-c2cccs2)nc1C(C(=O)Nc1cc(Cl)c(Cl)cc1Cl)c1ccccc1 (stereo not given), the T/C (dose: 50.0 mg/kg/injection, schedule: Q01DX005 (ip), vehicle: Klucel (hydroxypropylcellulose) (HPC)) is reported as 87 % of control, the T/C (dose: 100.0 mg/kg/injection, schedule: Q01DX005 (ip), vehicle: Klucel (hydroxypropylcellulose) (HPC)) is reported as 92 % of control and the T/C (dose: 200.0 mg/kg/injection, schedule: Q01DX005 (ip), vehicle: Klucel (hydroxypropylcellulose) (HPC)) is reported as 91 % of control.
With CCOC(=O)c1cc(OC(C)=O)c2ccc(OC)c(OC)c2c1 the T/C (dose: 6.25 mg/kg/injection, schedule: Q01DX009 (ip), vehicle: distilled water + Tween-80) was 101 % of control and 105 % of control and 90 % of control, the T/C (dose: 50.0 mg/kg/injection, schedule: Q01DX009 (ip), vehicle: distilled water + Tween-80) was 91 % of control and 93 % of control and 97 % of control and the T/C (dose: 100.0 mg/kg/injection, schedule: Q01DX009 (ip), vehicle: distilled water + Tween-80) was 91 % of control. The T/C (dose: 200.0 mg/kg/injection, schedule: Q01DX009 (ip), vehicle: distilled water + Tween-80) was 93 % of control.
For CCN(CC)CCOc1ccc(C(C)=O)cc1, the T/C [4] was 99 % of control, the T/C [1] was 92 % of control and the T/C [2] was 101 % of control.
For OC(COc1c2ccccc2nc2ccccc12)CN1CCN(c2ccccc2)CC1 (stereo not given), the T/C [1] was 94 % of control and the T/C [2] was 90 % of control.
With CCOC(=O)C1C(=O)CN(C(=O)OC)C1C (stereo not given) the T/C [1] was 96 % of control, the T/C [2] was 99 % of control and the T/C [3] was 93 % of control.
With Cc1ccc2c(ccc3c[n+]4ccccc4c(C)c32)c1 the T/C (dose: 2.2 mg/kg/injection, schedule: Q01DX009 (ip), vehicle: saline with Tween-80) was 122 % of control, the T/C (dose: 3.3 mg/kg/injection, schedule: Q01DX009 (ip), vehicle: saline with Tween-80) was 114 % of control and the T/C (dose: 5.0 mg/kg/injection, schedule: Q01DX009 (ip), vehicle: saline with Tween-80) was 122 % of control. For the same compound, the T/C (dose: 6.25 mg/kg/injection, schedule: Q04DX003 (ip), vehicle: other) was 112 % of control, the T/C (dose: 7.5 mg/kg/injection, schedule: Q01DX009 (ip), vehicle: saline with Tween-80) was 120 % of control and the T/C (dose: 12.5 mg/kg/injection, schedule: Q04DX003 (ip), vehicle: other) was 112 % of control. For the same compound, the T/C (dose: 25.0 mg/kg/injection, schedule: Q04DX003 (ip), vehicle: other) was 108 % of control.
C/C1=C(O[Si](C)(C)C)/C(O[Si](C)(C)C)=C(/C)CCCC1 was tested, and the T/C [5] was 100 % of control, the T/C [6] was 94 % of control and the T/C (dose: 200.0 mg/kg/injection, schedule: Q01DX009 (ip), vehicle: saline with Tween-80) was 97 % of control.
